For this assay, the target named is T1, RORgT (Homo sapiens, UniProt P51449).
T1 construct: Gal4 (fusion partner); expressed in transfected cells; host or cells: engineered Jurkat cells (Jurkat pEx/Gal/hRORγ CLBD/HYG pG5luc/blast)
T1 sequence (P51449 267-516): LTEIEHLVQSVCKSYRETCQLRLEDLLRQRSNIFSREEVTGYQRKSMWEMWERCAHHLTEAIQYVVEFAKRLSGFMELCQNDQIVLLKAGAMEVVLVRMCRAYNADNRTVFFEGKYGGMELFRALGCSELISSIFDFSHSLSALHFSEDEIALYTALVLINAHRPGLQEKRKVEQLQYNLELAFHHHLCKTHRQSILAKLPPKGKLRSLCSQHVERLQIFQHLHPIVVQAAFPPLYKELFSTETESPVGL
Kind of assay: RORgT Gal4 Luciferase Reporter Gene Assay. The format is cell-based. Particulars: engineered Jurkat cells overexpressing RORgT (LBD or full length) with Gal4 Luc reporter; 18 hours at 37° C.; 40 μM to 0.67 nM; read-out: RORg_GAL4 EC50. On the procedure:
The compound and the cells were incubated for 18 hours at 37° C. in a cell culture incubator. Cells were then lysed with 15 uL of Steady-Glo Luciferase Assay reagent (Promega EZ550), followed by centrifuging the assay plates at 1500 RPM for 1 minute. Subsequently, the plates were read on the Envision (PerkinElmer). The inhibition of constitutive activity of RORgT achieved by graded concentrations of compound was calculated as a percentage of the luminescence signal window reduction over a control compound.
A general note: In a reporter assay the amount or activity of a reporter protein is the signal.

As usually defined, the EC50 is the concentration needed to bring the measured effect to its halfway point.

Each structure is given as a SMILES string.

Take `COc1ccc(Oc2c(Cl)cc(NC(=O)CC3CCCNC3)cc2Cl)cc1C(C)C` (racemic) [Example 32, N-(3,5-dichloro-4-(3-isopropyl-4-methoxyphenoxy)phenyl)-2-(piperidin-3-yl)acetamide]: the EC50 worked out at 296 nM.
The same measure for `COc1ccc(Oc2c(Cl)cc(NC(=O)CC3CCCN(S(C)(=O)=O)C3)cc2Cl)cc1C(C)C` (racemic) [Example 41, N-(3,5-dichloro-4-(3-isopropyl-4-methoxyphenoxy)phenyl)-2-(1-(methylsulfonyl)piperidin-3-yl)acetamide]: 356 nM; for `COc1ccc(Oc2c(Cl)cc(NC(=O)CC3CCCN(S(C)(=O)=O)C3)cc2Cl)cc1C(C)C` (single isomer, unassigned) [Example 42, N-(3,5-dichloro-4-(3-isopropyl-4-methoxyphenoxy)phenyl)-2-(1-(methylsulfonyl)piperidin-3-yl)acetamide]: 207 nM.
Then `COc1ccc(Oc2c(Cl)cc(NC(=O)CC3CCCN(S(C)(=O)=O)C3)cc2Cl)cc1C(C)C` (single isomer, unassigned) [Example 43, N-(3,5-dichloro-4-(3-isopropyl-4-methoxyphenoxy)phenyl)-2-(1-(methylsulfonyl)piperidin-3-yl)acetamide], with 246 nM.
The same measure for `COc1ccc(Oc2c(Cl)cc(NC(=O)OCCS(C)(=O)=O)cc2Cl)cc1C(C)C` [Example 1, 2-(methylsulfonyl)ethyl (3,5-dichloro-4-(3-isopropyl-4-methoxyphenoxy)phenyl)carbamate]: 829 nM.
For `COc1ccc(Oc2c(Cl)cc(NC(=O)Cc3ccc(N)nc3)cc2Cl)cc1C(C)C` [Example 2, 2-(6-aminopyridin-3-yl)-N-(3,5-dichloro-4-(3-isopropyl-4-methoxyphenoxy)phenyl)acetamide], the EC50 was 152 nM.
The same measure for `COc1ccc(Oc2c(Cl)cc(NC(=O)Cc3ccc(S(C)(=O)=O)nc3)cc2Cl)cc1C(C)C` [Example 3, N-(3,5-dichloro-4-(3-isopropyl-4-methoxyphenoxy)phenyl)-2-(6-(methylsulfonyl) Pyridin-3-yl)acetamide]: 54 nM; for `COc1ccc(Oc2c(Cl)cc(NC(=O)Cc3cccc(C#N)c3)cc2Cl)cc1C(C)C` [Example 4, 2-(3-cyanophenyl)-N-(3,5-dichloro-4-(3-isopropyl-4-methoxyphenoxy)phenyl) acetamide]: 121 nM; for `COc1ccc(Oc2c(Cl)cc(NC(=O)Cc3cccc(C(N)=O)c3)cc2Cl)cc1C(C)C` [Example 5, 3-(2-((3,5-dichloro-4-(3-isopropyl-4-methoxyphenoxy)phenyl)amino)-2-oxoethyl)benzamide]: 437 nM.
The same measure for `COc1ccc(Oc2c(Cl)cc(NC(=O)Cc3cncc(C(N)=O)c3)cc2Cl)cc1C(C)C` [Example 6, 5-(2-((3,5-dichloro-4-(3-isopropyl-4-methoxyphenoxy)phenyl)amino)-2-oxoethyl)nicotinamide]: 533 nM.
The same measure for `COc1ccc(Oc2c(Cl)cc(NC(=O)Cc3cn[nH]c3)cc2Cl)cc1C(C)C` [Example 7]: 173 nM; for `COc1ccc(Oc2c(Cl)cc(NC(=O)CCn3cc(S(C)(=O)=O)cn3)cc2Cl)cc1C(C)C` [Example 9, N-(3,5-dichloro-4-(3-isopropyl-4-methoxyphenoxy)phenyl)-3-(4-(methylsulfonyl)-1H-pyrazol-1-yl)propanamide]: 81 nM.
With `COc1ccc(Oc2c(Cl)cc(N3CC(CO)OC3=O)cc2Cl)cc1C(C)C` (centres unmarked) [Example 10, 3-(3,5-dichloro-4-(3-isopropyl-4-methoxyphenoxy)phenyl)-5-(hydroxymethyl) oxazolidin-2-one], the EC50 came out at 2120 nM.
The same measure for `COc1ccc(Oc2c(Cl)cc(N3CC(CNC(C)=O)OC3=O)cc2Cl)cc1C(C)C` (centres unmarked) [Example 11, N-((3-(3,5-dichloro-4-(3-isopropyl-4-methoxyphenoxy)phenyl)-2-oxooxazolidin-5-yl)methyl)acetamide]: 77 nM.
